These results are taken from ChEMBL document CHEMBL1151354, “Isofraxidin, a cytotoxic coumarin from Micrandra elata (Euphorbiaceae)” (1980).

One assay has as its system KB. Kind of assay: Cytotoxicity against human KB cells. The conditions noted are these: read-out: ED50 (the source's name). The assay is classed as functional.
The next assay concerns P388. Kind of assay: Cytotoxicity against mouse P388 cells. The format is functional. As to conditions: read-out: ED50 (the source's name).

In brackets after ≈: the same amount, converted by molar mass.

As for `COc1cc2ccc(=O)oc2c(OC)c1O`, the EC50 in the assay with KB was more than 100 µg/mL; in the assay with P388, 1.7 µg/mL (≈ 7.65 µM).
